Results reported in patent US5968912A, “Methods for immunosuppressing” (Immune Modulation, Inc., priority 1997, dated 1999).
Values joined by “and” are separate entries in the source; they are usually repeats but may differ in a detail not shown here. Equal entries are not always repeated. “Also recorded” adds a separate entry of the source.

Experiments:
[1] = test system: mononuclear leukocytes (Two-way MLR); test: Two-way mixed leukocyte reaction (MLR), 3H-thymidine incorporation; format: cell-based, human
[2] = test system: Human T-lymphocyte-mediated cytolysis (cytotoxic CD8+ T-cells); test: One-way MLR-generated T-lymphocyte-mediated cytolysis (CTL assay, 51Cr release); format: cell-based
Interferon-gamma = Interferon-gamma production in PHA-stimulated PBMC cultures; format: cell-based, human; parameters: % Inhibition of IFN-γ production: concentration or dose not given beside the values
Description: Production of autocrine growth factors (IL-2, IL-4, IL-10 and Interferon-gamma) in PHA-stimulated human PBMC cultures
Culture supernatants were collected at the times indicated and frozen at -20° C. At the end of 96 hr., all supernatants were assayed by enzyme immunoassay for the presence of the cytokines: interleukin-2, -4, -10 and interferon (IFN)-gamma. Results were expressed in pg/mL concentration of cytokine and % inhibition of cytokine production.

[3] = test system: tetanus toxoid-specific T-cell proliferation (PBMC); test: cells; format: cell-based, human
[4] = test system: anti-CD3-induced T-cell proliferation (PBMC); test: Anti-CD3-induced T-cell proliferation; format: cell-based, human; conditions: anti-CD3 1 ng/mL
Description: Anti-T cell receptor (TCR)/CD3 induced T cell proliferation
PBMC of a healthy volunteer were cultured in 96-well microtiter plates at 2×10^5 cells/well. […] Cultures were incubated for 3 days at 37° C. in a 5% CO2 incubator. Proliferative response was determined by incorporation of ^3 H-thymidine.
Anti-CD3 mAb was used at 1 ng/mL concentration.

[5] = test system: skin graft rejection (Balb/C tail skin on C57BL/6 mice); test: Skin graft survival in mice; format: in vivo, mouse
Description: Effect of HE-33 on Skin-Grafting
Balb/C and C57BL/6 mice are genetically histoincompatible in that Balb/C is of haplotype H-2^d whereas C57BL/6 is of haplotype H-2^b. The surgical procedure used in these experiments was performed according to the procedures reported by Matriano, J. E. et al. (J. Immunol., 1996, 156:4114-4119).
Mice in groups 4 and 5 were orally administered HE-33 daily from 2 days prior to grafting. Rejection was assessed by observing redness and dryness of the graft (Natriano, J. E. et al., J. Immunol., 1996, 153:1505-1514). At a dose of 100 mg/kg I.V., HE-33 prolonged graft survival by approximately 4 days.
C57BL/6 mice were grafted with tail skin from Balb/c mice. Drug treatment
was started two days prior to grafting. Casts were removed on day 6 and
survival of the graft was scored everyday. Rejection was defined on chang
in thickness, dryness and >80% redness of the graft.

[6] = test system: NK cell activity (YAC-I cells as target); test: NK cell cytotoxicity assay, cells of pretreated donor mice; format: in vivo, mouse (C57BL/6); conditions: spleen, effector/target 100:1
Description: (§1) Elimination of endogenous and inducible NK cell activity from the cell donor mice (C57BL/6)
(§2) Six- to ten-week old C57BL/6 mice were treated for 24 hours orally or intravenously with HE-33. Orally-treated mice received 400 mg/kg twice a day (Bid), and intravenously treated mice received a single 100 mg/kg i.v.
NK Cell cytotoxicity assay: At the end of the 24 hour pre-treatment with HE-33, all treated mice and control, non-treated mice (i.e., mice treated with vehicle, PBS) were sacrificed by cervical dislocation. Spleens and lymph nodes were removed and single-cell suspension of pooled spleen and lymph nodes from mice in each group of donor were prepared in RPMI-1640 supplemented with 10% fetal bovine serum (FBS) and 1% penicillin/streptomycin. Target cells were ^51 Cr-labeled Moloney leukemia virus-induced lymphoma (YAC) tumor cells. Different effector:target cell ratios were cultured in triplicate samples in U-bottomed microtiter plates for 4 hours at 37° C. in a humidified atmosphere containing 5% CO2. The microtiter plates were then centrifuged, and 100-μL aliquots of supernatants were assayed for ^51 Cr release. Results were expressed as percent lysis and percent suppression of lysis. The method of Ojo-Amaize, E. et. al., Scand. Journal of Immunology, 1978, 7: 297-306, was used for the NK assays.

[7] = test system: GVHD in (B6 x C3H)F1 mice; test: GVHD in (B6 x C3H)F1 recipients of cells from pretreated C57BL/6 donor mice; format: in vivo, mouse
Description: Generation of F1 Recipient Mice: Male mice of inbred strains, C57BL/6 (H-2^b haplotype) were mated with female mice of inbred strains, C3 H/j (H-2^k haplotype). The resulting hybrids (C57BL/6×C3 H/j)F1 were used as recipients of the B6 spleen cells.
as §1, §2
Irradiation of Recipient (B6 ×C3 H)F1 Mice: Ten- to twelve- week old (B6 ×C3 H)F1 mice were sublethally irradiated with a Cobalt-60 gamma source at 450 rads in a single dose.
Induction of GVHD: GVHD was induced in irradiated (B6 ×C3 H)F1 mice by the intravenous injection of 5×10^7 donor B6 (H-2^b) spleen and lymph node cells.

CCCN(CCC)c1ncnc2c1ncn2[C@@H]1O[C@@H]2COP(=O)(O)O[C@H]2[C@H]1O [HE-33, N^6,N^6 -di-n-Propyl-c-AMP]
IC50 ([1]; Homo sapiens, Leukocyte, read-out: IC50, drug concentration capable of inducing a 50% inhibition): 100 to 1000 nM
inhibition at 0.01 µM ([1]; Homo sapiens, Leukocyte, 0.01 μM): 28%
inhibition at 0.1 µM ([1]; Homo sapiens, Leukocyte, 0.1 μM): 40%
inhibition at 1 µM ([1]; Homo sapiens, Leukocyte, 1 μM): 81%
inhibition at 10 µM ([1]; Homo sapiens, Leukocyte, 10 μM): 96%
inhibition at 100 µM ([1]; Homo sapiens, Leukocyte, 100 μM): 99.2%
Inhibitory capacity on two-way MLR, in words ([1]; two-way MLR): comparable to that of cyclosporin (CsA)
% Specific Lysis ([2]; 100 μM, E:T 25:1): 4%
inhibition at 100 µM ([2]; Homo sapiens, T-cell, E:T 25:1, read-out: % Inhibition of lysis): 80%
% Inhibition of IFN-γ production (Interferon-gamma; 24 hours): 0%
IFN-γ production (Interferon-gamma; 24 hours): 980 pg/mL
% Inhibition of IFN-γ production (Interferon-gamma; 48 hours): 9%
IFN-γ production (Interferon-gamma; 48 hours): 6146 pg/mL
% Inhibition of IFN-γ production (Interferon-gamma; 72 hours): 0%
IFN-γ production (Interferon-gamma; 72 hours): 5390 pg/mL
% Inhibition of IFN-γ production (Interferon-gamma; 96 hours): 0%
IFN-γ production (Interferon-gamma; 96 hours): 6105 pg/mL
Proliferation ([3]; 1 μg/mL): 358 CPM
Proliferation ([3]; 10 μg/mL): 94 CPM
inhibition at 1 µg/mL ([3]; Homo sapiens, T-cell, 1 μg/mL): 65%
Proliferation ([4]; 10 μM): 289 CPM
Proliferation ([4]; 100 μM): 43 CPM
inhibition at 10 µM ([4]; Homo sapiens, T-cell, 10 μM): 77%
inhibition at 100 µM ([4]; Homo sapiens, T-cell, 100 μM): 97%
Mean Survival Time ([5]; 50 mg/kg (I.V.)): 10.25 days
Mean Survival Time ([5]; 100 mg/kg (I.V.)): 13.4 days
Prolongation of graft survival ([5]; 100 mg/kg I.V.): approximately 4 days
Mean Survival Time ([5]; 200 mg/kg (oral)): 9.2 days
Mean Survival Time ([5]; 400 mg/kg (oral)): 9.8 days
Percent Lysis (NK cell activity) ([6]; 100 mg/kg IV): 14%
Percent Lysis (NK cell activity) ([6]; 400 mg/kg (Bid) oral): 5%
Percent Suppression of NK cell activity ([6]; 400 mg/kg (Bid) oral): ~80% and 76%
Mean survival time (MST) of the mice that died ([7]; FIG. 2): 46 days
Recipients that had died ([7]; by 55 days post cell transfer, FIG. 2): 30%
Recipients that had died ([7]; by day 30 post cell transfer, FIG. 2, P<0.0000001): none
Recipients that had died ([7]; day 33 post cell transfer, FIG. 3): 50%
Prevention of GVHD by route of administration, in words ([7]; oral versus intravenous): the oral route was better than the i.v. route; also recorded: Both the oral and intravenous routes of administration of HE-33 were effective in preventing GVHD
